Data reported in PubChem BioAssay (NCI).
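The compound was tested at five concentrations on cells cultured in 96-well plates, with a 48-hour exposure period. GI50 is the concentration that inhibits growth by half. At the TGI there is no net growth.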

Tests used:
Test in all cases: NCI tumour cell line growth inhibition, 48 h
SW-620 colon = test system: SW-620 colon
RXF 393 renal = test system: RXF 393 renal
OVCAR-3 ovarian = test system: OVCAR-3 ovarian
SF-539 CNS = test system: SF-539 CNS
BT-549 breast = test system: BT-549 breast
UACC-62 melanoma = test system: UACC-62 melanoma
SF-295 CNS = test system: SF-295 CNS
IGROV1 ovarian = test system: IGROV1 ovarian
HOP-62 NSCLC = test system: HOP-62 NSCLC
OVCAR-4 ovarian = test system: OVCAR-4 ovarian
A549 NSCLC = test system: A549 NSCLC
HOP-92 NSCLC = test system: HOP-92 NSCLC
CAKI-1 renal = test system: CAKI-1 renal
SN12C renal = test system: SN12C renal
HCT-15 colon = test system: HCT-15 colon
EKVX NSCLC = test system: EKVX NSCLC
M14 melanoma = test system: M14 melanoma
MDA-MB-468 breast = test system: MDA-MB-468 breast
SK-OV-3 ovarian = test system: SK-OV-3 ovarian
CCRF-CEM leukemia = test system: CCRF-CEM leukemia
A498 renal = test system: A498 renal
MDA-MB-231 breast = test system: MDA-MB-231 breast
HCT-116 colon = test system: HCT-116 colon
OVCAR-5 ovarian = test system: OVCAR-5 ovarian
DU-145 prostate = test system: DU-145 prostate
COLO 205 colon = test system: COLO 205 colon
NCI-H460 lung = test system: NCI-H460 lung
OVCAR-8 ovarian = test system: OVCAR-8 ovarian
UACC-257 melanoma = test system: UACC-257 melanoma
ACHN renal = test system: ACHN renal
MALME-3M melanoma = test system: MALME-3M melanoma
HL-60(TB) leukemia = test system: HL-60(TB) leukemia
HS 578T breast = test system: HS 578T breast
SNB-19 CNS = test system: SNB-19 CNS
SR leukemia = test system: SR leukemia
SNB-75 CNS = test system: SNB-75 CNS
HCC-2998 colon = test system: HCC-2998 colon
NCI-H522 lung = test system: NCI-H522 lung
T-47D breast = test system: T-47D breast
K-562 leukemia = test system: K-562 leukemia
NCI/ADR-RES ovarian = test system: NCI/ADR-RES ovarian
786-0 renal = test system: 786-0 renal
UO-31 renal = test system: UO-31 renal
SK-MEL-28 melanoma = test system: SK-MEL-28 melanoma
HT29 colon = test system: HT29 colon
KM12 colon = test system: KM12 colon
SK-MEL-2 melanoma = test system: SK-MEL-2 melanoma
SF-268 CNS = test system: SF-268 CNS
PC-3 prostate = test system: PC-3 prostate
TK-10 renal = test system: TK-10 renal
MOLT-4 leukemia = test system: MOLT-4 leukemia
U251 CNS = test system: U251 CNS
RPMI-8226 leukemia = test system: RPMI-8226 leukemia
LOX IMVI melanoma = test system: LOX IMVI melanoma
SK-MEL-5 melanoma = test system: SK-MEL-5 melanoma
NCI-H226 lung = test system: NCI-H226 lung
MDA-MB-435 = test system: MDA-MB-435
NCI-H23 lung = test system: NCI-H23 lung
MCF7 breast = test system: MCF7 breast

For `COc1ccc(S(=O)(=O)Nc2ccc(-c3ccc4c(c3)NC(=O)/C4=C\c3ccc[nH]3)cc2)cc1OC`, which GI50 (SW-620 colon) is on record?
Its GI50 is 8.53 µM.

And the TGI (SW-620 colon)?
Its TGI is 71.7 µM.

What about the GI50 (RXF 393 renal) of the same compound?
The GI50 was 1.4 µM.

What about the TGI (RXF 393 renal) of the same compound?
The TGI was 6.74 µM.

And the GI50 (OVCAR-3 ovarian)?
The GI50 was 8.4 µM.

And the TGI (OVCAR-3 ovarian)?
Its TGI is 27.5 µM.

And the GI50 (SF-539 CNS)?
The GI50 was 1.66 µM.

What about the TGI (SF-539 CNS) of the same compound?
The TGI was 11 µM.

And the GI50 (BT-549 breast)?
Its GI50 is 2.23 µM.

And the TGI (BT-549 breast)?
The TGI was 9.35 µM.

What about the GI50 (UACC-62 melanoma) of the same compound?
The GI50 was 0.75 µM.

What about the TGI (UACC-62 melanoma) of the same compound?
Its TGI is 8.59 µM.

What about the GI50 (SF-295 CNS) of the same compound?
The GI50 was 3.12 µM.

And the TGI (SF-295 CNS)?
Its TGI is 15.1 µM.

And the GI50 (IGROV1 ovarian)?
Its GI50 is 12.9 µM.

What about the TGI (IGROV1 ovarian) of the same compound?
The TGI was 33 µM.

What about the GI50 (HOP-62 NSCLC) of the same compound?
Its GI50 is 10.2 µM.

And the TGI (HOP-62 NSCLC)?
Its TGI is 23.3 µM.

What about the GI50 (OVCAR-4 ovarian) of the same compound?
The GI50 was 1.76 µM.

What about the TGI (OVCAR-4 ovarian) of the same compound?
The TGI was 11.8 µM.

What about the GI50 (A549 NSCLC) of the same compound?
Its GI50 is 2.18 µM.

And the TGI (A549 NSCLC)?
The TGI was 14.2 µM.

What about the GI50 (HOP-92 NSCLC) of the same compound?
Its GI50 is 3.43 µM.

What about the TGI (HOP-92 NSCLC) of the same compound?
Its TGI is 18.3 µM.

What about the GI50 (CAKI-1 renal) of the same compound?
The GI50 was 6.18 µM.

What about the TGI (CAKI-1 renal) of the same compound?
The TGI was 19.9 µM.

What about the GI50 (SN12C renal) of the same compound?
Its GI50 is 12.4 µM.

And the TGI (SN12C renal)?
Its TGI is 30.8 µM.

What about the GI50 (HCT-15 colon) of the same compound?
The GI50 was 13.7 µM.

And the TGI (HCT-15 colon)?
Its TGI is over 100 µM.

And the GI50 (EKVX NSCLC)?
The GI50 was 0.0835 µM.

And the TGI (EKVX NSCLC)?
The TGI was 17.5 µM.

And the GI50 (M14 melanoma)?
The GI50 was 2.4 µM.

And the TGI (M14 melanoma)?
Its TGI is 17.4 µM.

What about the GI50 (MDA-MB-468 breast) of the same compound?
Its GI50 is 0.0309 µM.

And the TGI (MDA-MB-468 breast)?
Its TGI is 0.113 µM.

And the GI50 (SK-OV-3 ovarian)?
Its GI50 is 3.59 µM.

What about the TGI (SK-OV-3 ovarian) of the same compound?
Its TGI is 15.1 µM.

What about the GI50 (CCRF-CEM leukemia) of the same compound?
Its GI50 is 16.1 µM.

And the TGI (CCRF-CEM leukemia)?
The TGI was over 100 µM.

What about the GI50 (A498 renal) of the same compound?
The GI50 was 14.3 µM.

What about the TGI (A498 renal) of the same compound?
The TGI was 28.5 µM.

What about the GI50 (MDA-MB-231 breast) of the same compound?
The GI50 was 3.82 µM.

What about the TGI (MDA-MB-231 breast) of the same compound?
Its TGI is 15.3 µM.

What about the GI50 (HCT-116 colon) of the same compound?
Its GI50 is 4.72 µM.

And the TGI (HCT-116 colon)?
The TGI was 88.5 µM.

And the GI50 (OVCAR-5 ovarian)?
Its GI50 is 10.6 µM.

What about the TGI (OVCAR-5 ovarian) of the same compound?
The TGI was 23.8 µM.

And the GI50 (DU-145 prostate)?
Its GI50 is 4.88 µM.

And the TGI (DU-145 prostate)?
The TGI was 20.8 µM.

And the GI50 (COLO 205 colon)?
The GI50 was 10.2 µM.

What about the TGI (COLO 205 colon) of the same compound?
Its TGI is 83.3 µM.

What about the GI50 (NCI-H460 lung) of the same compound?
The GI50 was 0.343 µM.

What about the TGI (NCI-H460 lung) of the same compound?
Its TGI is 11.3 µM.

What about the GI50 (OVCAR-8 ovarian) of the same compound?
Its GI50 is 11.2 µM.

And the TGI (OVCAR-8 ovarian)?
Its TGI is 28.9 µM.

What about the GI50 (UACC-257 melanoma) of the same compound?
The GI50 was 0.691 µM.

What about the TGI (UACC-257 melanoma) of the same compound?
The TGI was 12.1 µM.

And the GI50 (ACHN renal)?
The GI50 was 6.99 µM.

What about the TGI (ACHN renal) of the same compound?
The TGI was 20.2 µM.

What about the GI50 (MALME-3M melanoma) of the same compound?
The GI50 was 4.26 µM.

What about the TGI (MALME-3M melanoma) of the same compound?
Its TGI is 15.9 µM.

And the GI50 (HL-60(TB) leukemia)?
The GI50 was 8.35 µM.

What about the TGI (HL-60(TB) leukemia) of the same compound?
The TGI was over 100 µM.

What about the GI50 (HS 578T breast) of the same compound?
Its GI50 is 4.6 µM.

What about the TGI (HS 578T breast) of the same compound?
The TGI was 61.8 µM.

What about the GI50 (SNB-19 CNS) of the same compound?
The GI50 was 12.6 µM.

What about the TGI (SNB-19 CNS) of the same compound?
The TGI was 26.3 µM.

And the GI50 (SR leukemia)?
Its GI50 is 0.86 µM.

What about the TGI (SR leukemia) of the same compound?
The TGI was over 100 µM.

What about the GI50 (SNB-75 CNS) of the same compound?
The GI50 was 1.37 µM.

And the TGI (SNB-75 CNS)?
The TGI was 21.2 µM.

What about the GI50 (HCC-2998 colon) of the same compound?
Its GI50 is 5.74 µM.

And the TGI (HCC-2998 colon)?
The TGI was over 100 µM.

What about the GI50 (NCI-H522 lung) of the same compound?
Its GI50 is 3.25 µM.

And the TGI (NCI-H522 lung)?
Its TGI is 23 µM.

And the GI50 (T-47D breast)?
The GI50 was 0.0285 µM.

And the TGI (T-47D breast)?
The TGI was 1.27 µM.

What about the GI50 (K-562 leukemia) of the same compound?
The GI50 was 11.9 µM.

What about the TGI (K-562 leukemia) of the same compound?
The TGI was over 100 µM.

And the GI50 (NCI/ADR-RES ovarian)?
The GI50 was 14 µM.

And the TGI (NCI/ADR-RES ovarian)?
The TGI was over 100 µM.

And the GI50 (786-0 renal)?
Its GI50 is 3.43 µM.

And the TGI (786-0 renal)?
Its TGI is 15.2 µM.

What about the GI50 (UO-31 renal) of the same compound?
The GI50 was 12.9 µM.

What about the TGI (UO-31 renal) of the same compound?
The TGI was 27.4 µM.

What about the GI50 (SK-MEL-28 melanoma) of the same compound?
Its GI50 is 0.886 µM.

And the TGI (SK-MEL-28 melanoma)?
The TGI was 7.07 µM.

What about the GI50 (HT29 colon) of the same compound?
Its GI50 is 7.61 µM.

What about the TGI (HT29 colon) of the same compound?
The TGI was over 100 µM.

And the GI50 (KM12 colon)?
Its GI50 is 9.03 µM.

And the TGI (KM12 colon)?
Its TGI is over 100 µM.

And the GI50 (SK-MEL-2 melanoma)?
Its GI50 is 14.3 µM.

And the TGI (SK-MEL-2 melanoma)?
The TGI was 33.8 µM.

And the GI50 (SF-268 CNS)?
Its GI50 is 15.3 µM.

And the TGI (SF-268 CNS)?
The TGI was 55.2 µM.

And the GI50 (PC-3 prostate)?
The GI50 was 10.1 µM.

What about the TGI (PC-3 prostate) of the same compound?
The TGI was 41.3 µM.

And the GI50 (TK-10 renal)?
Its GI50 is 3.3 µM.

And the TGI (TK-10 renal)?
The TGI was 18.7 µM.

What about the GI50 (MOLT-4 leukemia) of the same compound?
The GI50 was 14.8 µM.

And the TGI (MOLT-4 leukemia)?
Its TGI is over 100 µM.

What about the GI50 (U251 CNS) of the same compound?
Its GI50 is 10.1 µM.

And the TGI (U251 CNS)?
The TGI was 23.2 µM.

And the GI50 (RPMI-8226 leukemia)?
Its GI50 is 8.33 µM.

And the TGI (RPMI-8226 leukemia)?
The TGI was over 100 µM.

What about the GI50 (LOX IMVI melanoma) of the same compound?
Its GI50 is 6.39 µM.

And the TGI (LOX IMVI melanoma)?
The TGI was 27.6 µM.

What about the GI50 (SK-MEL-5 melanoma) of the same compound?
Its GI50 is 3.35 µM.

What about the TGI (SK-MEL-5 melanoma) of the same compound?
Its TGI is 22.1 µM.

What about the GI50 (NCI-H226 lung) of the same compound?
Its GI50 is 1.82 µM.

What about the TGI (NCI-H226 lung) of the same compound?
The TGI was 12.8 µM.

What about the GI50 (MDA-MB-435) of the same compound?
Its GI50 is 6.35 µM.

What about the TGI (MDA-MB-435) of the same compound?
Its TGI is 38.9 µM.

And the GI50 (NCI-H23 lung)?
Its GI50 is 0.194 µM.

What about the TGI (NCI-H23 lung) of the same compound?
Its TGI is 14.7 µM.

And the GI50 (MCF7 breast)?
Its GI50 is 0.0476 µM.

What about the TGI (MCF7 breast) of the same compound?
The TGI was 11.1 µM.
